Assay: OECD 306 marine biodegradation
From the text: In the following example, additive formulations were studied for biodegradability in order to quantify the suitability of the formulations for use in environmentally sensitive areas. One measure of sample toxicity is marine biodegradation data as outlined in Organization for Economic Cooperation and Development, Procedure OECD 306 or BODIS. Under OECD 306, the rules that governing offshore chemical use set forth three tests: bioaccumulation, biodegradation and toxicity. In order for a chemical to be used without restriction offshore in the North Sea it must satisfy two of the following three criteria: (1) biodegradation must be greater than 60%, if less than 20% it is automatically marked for substitution; (2) bioaccumulation as measured by octanol/water partitioning coefficient (log Po/w) must be below 3 (or have a molecular weight >700); and toxicity to the most sensitive marine species (often Skeletonema) must be greater than LC50 or EC50 of 10 ppm.
During the biodegradation testing, samples were formulated as show below in Table 4, where polyetheramine is a diamino-functionalized JEFFAMINE™.
Samples were then subjected to biodegradation and results were tabulated as shown below in Table 5. Comparative samples of sodium benzoate and ULTRAHIB™ PLUS, an amine-based shale inhibitor commercially available from M-I L.L.C., were also assayed.

In the case of `O=C([O-])c1ccccc1.[Na+]` [Sodium benzoate], the “OECD 306 Biodegradation Day 7” value (Day 7) is reported as 64%, the “OECD 306 Biodegradation Day 14” value (Day 14) is reported as 71% and the “OECD 306 Biodegradation Day 21” value (Day 21) is reported as 76%. For the same molecule, the “OECD 306 Biodegradation Day 28” value (Day 28) was 78%.

— patent publication US11155740B2, “Shale hydration inhibitor and method of use” (M-I L.L.C., priority 2014, dated 2021)
